Assay: Solubility of tacrolimus in triacetin
Format: physicochemical
Conditions: free form, in triacetin at 25° C.
Experimental: [drawing 2] (chemical name: glycerin triacetate). The properties of triacetin are described in Iyakuhin Tenkabutsu Kikaku 2003 and Iyakuhin Tenkabutsu Jiten 2007 (Yakuji Nippo), which are incorporated herein by reference. Tacrolimus in a free form may dissolve in triacetin at 25° C. in the ratio of about 12.5 g/100 g. Preferably, the external preparation of the present invention comprises triacetin at 0.1 to 30% by weight, more preferably 1.0 to 20% by weight, still more preferably 3.0 to 6.0% by weight, most preferably 4.0 to 5.0% by weight for the total amount of the preparation.

- dissolve in triacetin (ratio): about 12.5 g/100 g
Substance: 17-aryl-1,14-dihydroxy-12-[2-(4-hydroxy-3-methoxycyclohexyl)-1-methylbinyl]-23,25-dimethoxy-13,19,21,27-tetramethyl-11,28-dioxa-4-azatricyclo [22.3.1.04, 9] octacos-18-en-2,3,10,16-tetraone [Tacrolimus]

From patent US8575189B2, “Tacrolimus preparation for external applications” (Takata Seiyaku Co., Ltd., priority 2008, dated 2013)
